Format in all cases: biochemical
One assay concerns the target T1, MMP-9 (Homo sapiens, UniProt P14780).
T1 construct: from tissue; host or cells: human polymorphonuclear leukocytes (PMN) from whole blood (New York Blood Center), PMA-stimulated supernatant
Put plainly: Automated MMP Profiling Assay, MMP-9 fluorogenic. As to conditions: for IC50: 96-well automated, P218.

Another assay has as its target T2, MMP-2 (Homo sapiens, UniProt P08253).
T2 sequence (P08253 110-660): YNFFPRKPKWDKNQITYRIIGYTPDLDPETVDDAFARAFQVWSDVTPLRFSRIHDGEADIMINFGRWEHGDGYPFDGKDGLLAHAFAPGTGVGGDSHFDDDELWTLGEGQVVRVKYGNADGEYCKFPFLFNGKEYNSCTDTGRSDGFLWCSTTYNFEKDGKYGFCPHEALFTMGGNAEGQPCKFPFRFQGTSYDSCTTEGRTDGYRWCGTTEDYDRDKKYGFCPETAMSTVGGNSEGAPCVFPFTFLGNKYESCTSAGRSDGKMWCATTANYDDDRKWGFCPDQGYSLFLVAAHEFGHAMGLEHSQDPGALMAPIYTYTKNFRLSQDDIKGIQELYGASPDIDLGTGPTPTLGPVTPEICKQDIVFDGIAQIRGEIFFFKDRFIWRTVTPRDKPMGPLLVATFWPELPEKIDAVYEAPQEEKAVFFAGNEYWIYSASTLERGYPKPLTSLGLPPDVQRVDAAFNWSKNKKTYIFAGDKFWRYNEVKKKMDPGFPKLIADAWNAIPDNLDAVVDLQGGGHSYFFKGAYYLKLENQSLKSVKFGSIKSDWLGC
Put plainly: Automated MMP Profiling Assay, MMP-2 fluorogenic. As to conditions: 96-well automated, P218; read-out: MMP-2 Fluorogenic IC50 (profiling).

Another assay has as its target T3, MMP-3 (Homo sapiens, UniProt P08254).
T3 construct: Truncated Prostromelysin-257 was expressed in a soluble form in E.coli; made in house; host or cells: E. coli
Put plainly: Automated MMP Profiling Assay, MMP-3 fluorogenic. As to conditions: for IC50: 96-well automated, P218. From the text:
This assay with each invention compound was run with the three enzymes MMP-3, MMP-9 and MMP-2 in parallel as adapted for a 96-well microtitre plate using a Hamilton A® workstation.

IC50 and inhibition data for 23 compounds are collected here from patent publication US5789434A, “Derivatives of substituted 4-biarylbutyric acid as matrix metalloprotease inhibitors” (priority 1995, dated 1998).

T1 sequence (P14780 107-707 limits assumed): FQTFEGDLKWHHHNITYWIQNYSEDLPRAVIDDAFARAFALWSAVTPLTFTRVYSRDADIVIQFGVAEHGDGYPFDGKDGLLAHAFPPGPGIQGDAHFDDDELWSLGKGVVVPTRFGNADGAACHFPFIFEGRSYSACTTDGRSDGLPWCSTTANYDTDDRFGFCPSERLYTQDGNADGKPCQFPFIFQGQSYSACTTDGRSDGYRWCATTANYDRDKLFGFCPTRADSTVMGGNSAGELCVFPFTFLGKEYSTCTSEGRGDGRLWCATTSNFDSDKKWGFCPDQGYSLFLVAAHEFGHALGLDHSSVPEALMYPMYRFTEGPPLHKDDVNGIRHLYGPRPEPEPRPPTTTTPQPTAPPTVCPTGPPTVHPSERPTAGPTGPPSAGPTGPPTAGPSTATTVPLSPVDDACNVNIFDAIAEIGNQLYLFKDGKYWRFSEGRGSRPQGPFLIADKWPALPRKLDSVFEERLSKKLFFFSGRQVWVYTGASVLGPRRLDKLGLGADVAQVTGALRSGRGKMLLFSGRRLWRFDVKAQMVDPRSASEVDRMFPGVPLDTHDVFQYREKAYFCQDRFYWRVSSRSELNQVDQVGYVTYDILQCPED
T3 sequence (P08254 100-274 limits assumed): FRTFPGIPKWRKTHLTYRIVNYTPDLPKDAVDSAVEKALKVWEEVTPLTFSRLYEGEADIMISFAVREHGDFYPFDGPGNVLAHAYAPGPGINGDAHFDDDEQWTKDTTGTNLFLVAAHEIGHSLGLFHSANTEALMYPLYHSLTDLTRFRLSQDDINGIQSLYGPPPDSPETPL

One may read the IC50 as the concentration that inhibits the measured activity by half. `Cc1ccccc1C(=O)OC[C@@H]1CC[C@H](C(=O)c2ccc(-c3ccc(Cl)cc3)cc2)[C@H]1C(=O)O` (relative stereo) [Example 378, Benzoic acid, 2-methyl-, [2-carboxy-3-[(4'-chloro[1,1'-biphenyl]-4-yl)carbonyl]cyclopentyl]methyl ester, (1α,2β,3α)-]: the figures for the IC50 against MMP-9, at MMP-2 and against MMP-3 were 83 nM, 43 nM and 77 nM, respectively.

As to `O=C(CC(CCNC(=O)c1ccccc1C(=O)O)C(=O)O)c1ccc(-c2ccc(Cl)cc2)cc1` (stereo not drawn) [Example 279, [1,1'-Biphenyl]-4-butanoic acid, α-[2-[(2-carboxybenzoyl)amino]ethyl]-4'-chloro-γ-oxo-], the results for the IC50 against MMP-9, at MMP-2 and against MMP-3 were 286 nM, 67 nM and 402 nM, respectively.

What is called inhibition is the change of the read-out against control, counted positive when it falls. `CC(=O)O[C@H]1C[C@@H](C(=O)c2ccc(-c3ccc(Cl)cc3)cc2)[C@H]1C(=O)O` (relative stereo) [Example 393, Cyclobutanecarboxylic acid, 2-(acetyloxy)-4-[(4'-chloro[1,1'-biphenyl]-4-yl)carbonyl]-, (1α,2α,4α)-]: the inhibition at 5 µM against MMP-9 came out at 38%; against MMP-3, 18%. Besides, the IC50 on MMP-2 came to 2000 nM.

On to `O=C(O)c1cccc(CCC(CC(=O)c2ccc(-c3ccc(Cl)cc3)cc2)C(=O)O)c1` (stereo not drawn) [Example 148, [1,1'-Biphenyl]-4-butanoic acid, α-[2-(3-carboxyphenyl)ethyl]-4'-chloro-γ-oxo-], for which the values for the IC50 against MMP-9, on MMP-2 and against MMP-3 were 454 nM, 54 nM and 90 nM, respectively.

Turning to `CCCOc1ccc(-c2ccc(C(=O)CC(CCc3ccccc3)C(=O)O)cc2)cc1` (stereo not drawn) [Example 157, [1,1'-Biphenyl]-4-butanoic acid, γ-oxo-α-(2-phenylethyl)-4'-propoxy-], the IC50 at MMP-9 is 142 nM; on MMP-2 it was 35 nM; against MMP-3, 111 nM.

As to `CC(C)COc1ccc(-c2ccc(C(=O)CC(CCCc3ccccc3)C(=O)O)cc2)cc1` (stereo not drawn) [Example 94, [1,1'-Biphenyl]-4-butanoic acid, 4'-(2-methylpropoxy)-γ-oxo-α-(3-phenylpropyl)-], the figures for the IC50 at MMP-9, at MMP-2 and on MMP-3 were 1850 nM, 155 nM and 224 nM, respectively.

In the case of `COC/C=C/c1ccc(-c2ccc(C(=O)CC(CCCc3ccccc3)C(=O)O)cc2)cc1` (stereo not drawn) [Example 353, [1,1'-Biphenyl]-4-butanoic acid, 4'-(3-methoxy-1-propenyl)-γ-oxo-α-(3-phenylpropyl)-, (E)-], the concentration for half-maximal inhibition (IC50) against MMP-9 stood at 274 nM; on MMP-2, 20 nM; against MMP-3, 84 nM.

Turning to `O=C(CC(CCCCN1C(=O)c2ccccc2C1=O)C(=O)O)c1ccc(-c2ccc(Cl)cc2)cc1` (stereo not drawn) [Example 431, 2H-Isoindole-2-hexanoic acid, α[2-(4'-chloro[1,1'-biphenyl]-4-yl)-2-oxoethyl]-1,3-dihydro-1,3-dioxo-], the values for the IC50 at MMP-9, at MMP-2 and against MMP-3 were 50 nM, 16 nM and 38 nM, respectively.

For the compound `O=C(CC(CCN1C(=O)c2ccccc2C1=O)C(=O)O)c1ccc(-c2ccc(OCc3ccccc3)cc2)cc1` (stereo not drawn) [Example 271, 2H-Isoindole-2-butanoic acid, 1,3-dihydro-1,3-dioxo-α-[2-oxo-2-[4'-(phenylmethoxy)[1,1'-biphenyl]-4-yl]ethyl]-], the IC50 was 7.9 nM against MMP-9, 1.4 nM at MMP-2 and 5.2 nM against MMP-3.

Regarding `O=C(O)c1ccc(CCC(CC(=O)c2ccc(-c3ccc(Cl)cc3)cc2)C(=O)O)cc1` (stereo not drawn) [Example 153, [1,1'-Biphenyl]-4-butanoic acid, α-[2-(4-carboxyphenyl)ethyl]-4'-chloro-γ-oxo-], the IC50 against MMP-9 was found to be 1010 nM; on MMP-2, 127 nM; against MMP-3, 594 nM.

For `CC(C)(C)CC(=O)N1CC[C@H](C(=O)c2ccc(-c3ccc(Cl)cc3)cc2)[C@H]1C(=O)O` [Example 171, L-Proline, 3-[(4'-chloro[1,1'-biphenyl]-4-yl)carbonyl]-1-(3,3-dimethyl-1-oxobutyl)-, trans-], the IC50 is 3520 nM at MMP-9, 452 nM on MMP-2 and 663 nM against MMP-3.

For `O=C(O)[C@H]1[C@H](CN2C(=O)c3cc4ccccc4cc3C2=O)CC[C@@H]1C(=O)c1ccc(-c2ccc(Cl)cc2)cc1` (relative stereo) [Example 387, Cyclopentanecarboxylic acid, 2-[(4'-chloro[1,1'-biphenyl]-4-yl)carbonyl]-5-[(1,3-dihydro-1,3-dioxo-2H-benz[.function.]isoindol-2-yl)methyl]-, (1α,2β,5β)-], the figures for the IC50 against MMP-9, on MMP-2 and at MMP-3 were 2 nM, 4.9 nM and 9.4 nM, respectively.

In the case of `O=C(CC(CCCc1ccccc1)C(=O)O)c1ccc(-c2ccc(OCCc3ccccc3)cc2)cc1` (stereo not drawn) [Example 102, [1,1'-Biphenyl]-4-butanoic acid, γ-oxo-4'-(2-phenylethoxy)-α-(3-phenylpropyl)-], the IC50 came out at 698 nM at MMP-9, 25 nM on MMP-2 and 78 nM at MMP-3.

For `O=C(CC(CCN1C(=O)c2ccccc2C1=O)C(=O)O)c1ccc(-c2ccc(Cl)cc2)cc1` (racemic) [Example 267, 4-[4-(4-chlorophenyl)phenyl]-4-oxo-2-(2-phthalimidoethyl)butanoic acid], the IC50 against MMP-9 is 3 nM; on MMP-2 it was 2.6 nM; on MMP-3 it was 15 nM.

As to `CC(=O)Oc1ccc2c(c1)C(=O)N(CCC(CC(=O)c1ccc(-c3ccc(Cl)cc3)cc1)C(=O)O)C2=O` (stereo not drawn) [Example 425, 2H-Isoindole-2-butanoic acid, 5-(acetyloxy)-α-[2-(4'-chloro[1,1'-biphenyl]-4-7l)2-oxoetyl]-1,3-dihydro-1,3-dioxo-], the IC50 against MMP-9 came to 1.2 nM; on MMP-2 it was 14 nM; against MMP-3, 3.8 nM.

In the case of `O=C(O)[C@H]1[C@H](CSc2nc3ccccc3s2)CC[C@@H]1C(=O)c1ccc(-c2ccc(Cl)cc2)cc1` (relative stereo) [Example 375, Cyclopentanecarboxylic acid, 2-[(2-benzothiazolylthio)methyl]-5-[(4'-chloro[1,1'-biphenyl]-4-yl)carbonyl]-, (1α,2β,5β)-], the IC50 was 146 nM against MMP-9, 68 nM on MMP-2 and 116 nM against MMP-3.

As for `COc1cccc(C(=O)OC[C@@H]2CC[C@H](C(=O)c3ccc(-c4ccc(Cl)cc4)cc3)[C@H]2C(=O)O)c1` (relative stereo) [Example 382, Benzoic acid, 3-methoxy-, [2-carboxy-3-[(4'-chloro[1,1'-biphenyl]-4-yl)carbonyl]cyclopentyl]methyl ester, (1α,2β,3α)-], the IC50 is 39 nM at MMP-9, 64 nM on MMP-2 and 42 nM against MMP-3.

With `O=C(O)[C@H]1[C@H](C(=O)c2ccc(-c3ccc(Cl)cc3)cc2)[C@H]2C=C[C@@H]1C2` (relative stereo) [Example 176, Bicyclo[2.2.1]hept-5-ene-2-carboxylic acid, 3-[(4'-chloro[1,1'-biphenyl]-4-yl)carbonyl]-, (2-endo-,3-exo)-], the figures for the inhibition at 5 µM at MMP-9 and against MMP-3 were 24% and 26%, respectively. The IC50 at MMP-2 is 2000 nM.

Turning to `O=C(NC[C@@H]1CC[C@H](C(=O)c2ccc(-c3ccc(Cl)cc3)cc2)[C@H]1C(=O)O)OCc1ccccc1` (relative stereo) [Example 377], the figures for the IC50 against MMP-9, at MMP-2 and at MMP-3 were 44 nM, 28 nM and 24 nM, respectively.

Regarding `COCCCc1ccc(-c2ccc(C(=O)CC(CCCc3ccccc3)C(=O)O)cc2)cc1` (stereo not drawn) [Example 355, [1,1'-Biphenyl]-4-butanoic acid, 4'-(3-methoxypropyl)-γ-oxo-α-(3-phenylpropyl)-], the IC50 was 1080 nM on MMP-9, 90 nM on MMP-2 and 508 nM against MMP-3.

Consider `COc1ccc(C(=O)OC[C@@H]2CC[C@H](C(=O)c3ccc(-c4ccc(Cl)cc4)cc3)[C@H]2C(=O)O)cc1` (relative stereo) [Example 383, Benzoic acid, 4-methoxy-, [2-carboxy-3-[(4'-chloro[1,1'-biphenyl]-4-yl)carbonyl]cyclopentyl]methyl ester, (1α,2β,3α)-], for which the IC50 came to 53 nM at MMP-9, 110 nM on MMP-2 and 58 nM on MMP-3.

As to `O=C(c1ccc(-c2ccc(Cl)cc2)cc1)[C@H]1CCN(C(=O)CCc2ccccc2)[C@@H]1C(=O)O` [Example 169, L-Proline, 3-[(4'-chloro[1,1'-biphenyl]-4-yl)carbonyl]-1-(1-oxo-3-phenylpropyl)-, trans-], the IC50 against MMP-9 was found to be 1080 nM; at MMP-2, 80 nM; on MMP-3, 245 nM.

Turning to `NC(=O)c1ccc(COc2ccc(-c3ccc(C(=O)CC(CCCc4ccccc4)C(=O)O)cc3)cc2)cc1` (stereo not drawn) [Example 112, [1,1'-Biphenyl]-4-butanoic acid, 4'-[[4-(aminocarbonyl)phenyl]methoxy]-γ-oxo-α-(3-phenylpropyl)-], the results for the IC50 on MMP-9, on MMP-2 and on MMP-3 were 884 nM, 11 nM and 30 nM, respectively.
